Experimental data reported in patent US20230277484A1, “COMPOSITIONS AND METHODS TO PROMOTE BRAIN HEALTH” (Guardian Biosciences, LLC, priority 2022, published 2023).

How the values were obtained:
[1] = mouse, in vivo
Description: 1. The purpose of this study is to determine tissue levels of a test article after dosing in mice.
3. Test system • Number of animals: 39 • Species/strain or breed: C57BL/6J • Age/Wt. at Arrival: 7 weeks • Sex: Female
On study day 0 animals were randomized into treatment groups based on body weight. Following enrollment, treatment was initiated and continued as indicated below. Body weights were recorded following enrollment. Sample collection time points are outlined below On study day 1, animals were necropsied as specified in Section 6.6 below.
7.6 Necropsy information • Method of euthanasia: bleed to exsanguinate followed by cervical dislocation. • Time points: N=3 at each time point; 0 (vehicle); 10 min; 30 min; 1, 2, 3 and 4h
Terminal blood samples were collected via cardiac blood draw and processed for plasma (K2 EDTA, 300-400 uL/animal. Plasma samples were stored at −80 C for shipment on dry ice for bioanalysis. From each animal, the entire brain was collected, flash frozen, and stored at −80 C for shipment on dry ice to bioanalysis.
A study was performed to collect plasma for pharmacokinetic monitoring after a single dose of R-(−)-3-hydroxybutyric acid sodium salt (“BHB”) or R-3′-hydroxybutyl (R)-3′-hydroxybutyrate (“BHB ester”) in female C57BL/6 mice. […]

[2] = test system: weight drop model of TBI; assay: Beam-walk behavioral assay in the weight drop model of TBI; assay type: in vivo, C57BL/6J female mice
Description: Test System. • Number of animals: 120 (100+20 extra for TBI deaths0 • Species/Strain or Breed: C57BL/6J • Vendor: Jackson Labs • Age/Wt at Arrival: 11 weeks at arrival • Gender: Female • Age/Wt at Study Initiation: 12 weeks • Acclimation: 7 days • Housing: 3-4 animals/cage
Study Design. Animals will arrive in the facility and will have access to food and water ad libitum. On study day 0, animals will be randomized based on bodyweight. Animals will be briefly anesthetized with isoflurane and subjected to traumatic brain injury (TBI) or sham injury as listed under Injury Induction. Animals will be weighed and undergo behavior testing (Beam Walking) and necropsied according to the Necropsy section.
They will then be placed individually in the prone position in a foam bed with their heads directly under a Plexiglas tube. A brass weight (80 g) will be dropped once through the tube from a specific height (0.8 m) and will strike the head directly creating a midline impact injury. Animals will be monitored for the presence of the forearm fencing response as a sign of moderate TBI. Animals will be placed in a clean cage on a heating pad for recovery, and righting reflex recovery times will be recorded for all animals. Sham animals will undergo all the same procedures but will not be subjected to TBI. Animals will be given 0.1 mg/kg SC buprenorphine directly after TBI to reduce acute pain associated with the injury and directly after sham procedures for the purpose of experimental matching. Animals will be checked daily, per the IACUC-approved post-operative monitoring plan.
Behavioral assay—Beam Walking (Luong, T N et al. Assessment of motor balance and coordination in mice using the balance beam.” J. Vis. Exp. (2011) 49: 2376) Fine motor coordination and balance can be assessed by the beam walking assay, which is a popular test for analyzing mice's gait in an environment that challenges their ability to balance themselves. The goal of this test is for the mouse to stay upright and walk across an elevated narrow beam to a safe platform. Performance on the beam is quantified by measuring the time it takes for the mouse to traverse the beam and the number of paw slips that occur in the process. This task is particularly useful for detecting subtle deficits in motor skills and balance that may not be detected by other motor tests, such as the Rotarod.
This test takes place over 3 consecutive days: 2 days of training and 1 day of testing. On training days, each mouse crosses the 12 mm beam 3 times and then the 6 mm beam 3 times. […] Mice are placed at one end of a beam and the time required to cross to the escape box at the other end (80 cm away) is measured by the motion detectors. […]
On the test day, times to cross each beam are recorded. […]

[3] = test system: Neurofilament Light (NfL) Chain; assay: Neurofilament light chain in plasma after TBI; assay type: in vivo, C57BL/6J female mice; settings: preliminary, data not shown
Description: Plasma collection method: Centrifuge plasma samples (EDTA tubes) at 2200×g (not RPM) for 15 minutes at room temperature. Observe separation of blood cells and plasma, with plasma layer on top. Draw off only the plasma layer and take care not to disturb buffy coat when aliquoting by leaving some plasma behind and avoiding the cell layer. Aliquot samples immediately into appropriately labeled tubes and then place them in a −80° C. freezer. […] [table]

[4] = test system: IL-1β, IL-6, IL-10, TNF-α; assay: Luminex Mouse Inflammatory Panel in cortex after TBI; assay type: in vivo, C57BL/6J female mice
Description: Sacrifice Schedule: • a. Day 0—animals 1-5, all groups, 4h post TBI • b. Day 1—animals 6-10, all groups, 24 h post-TBI • c. Day 14—animals 11-20, all groups, 14d post TBI
Luminex Mouse Inflammatory Panel. FIG. 9A-FIG. 9C show pg/pg total protein of IL-1β (FIG. 9A), IL-6 (FIG. 9B) and IL-10 (FIG. 9C) expressed in the cortex in each study group from FIG. 8. […] While IL-10 is generally thought of as an anti-inflammatory cytokine, it also may promote fibrotic processes [Steen, E H et al. Adv. Wound Care (New Rochelle) (2020) 9 (4): 184-98, citing O'Garra, A. et al. Immunol. Rev. ([…]) 223: 114-31]. The data for the pre+post groups are consistent with the behavioral data.

[5] = biological target: human HCA2 (Homo sapiens, UniProt Q8TDS4); settings: citing Taggart et al. 2005; read-out: EC50 for activation of human HCA2; cited from earlier work
[6] = citing Newman and Verdin 2017; cited from earlier work

human HCA2, sequence (Q8TDS4 whole entry): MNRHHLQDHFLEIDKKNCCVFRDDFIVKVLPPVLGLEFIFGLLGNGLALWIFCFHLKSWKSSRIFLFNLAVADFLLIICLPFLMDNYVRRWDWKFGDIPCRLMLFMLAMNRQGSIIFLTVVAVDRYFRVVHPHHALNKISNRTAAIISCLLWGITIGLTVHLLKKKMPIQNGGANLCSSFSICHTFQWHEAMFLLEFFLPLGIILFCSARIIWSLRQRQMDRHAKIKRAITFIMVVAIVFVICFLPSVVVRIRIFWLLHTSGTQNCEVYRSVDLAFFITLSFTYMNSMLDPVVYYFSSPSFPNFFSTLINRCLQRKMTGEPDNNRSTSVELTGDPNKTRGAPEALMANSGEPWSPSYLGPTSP

plasma levels relative to brain levels [1] | Compound | improvement in foot faults ([2]; 2× pre+post group, 1 day after TBI, IN daily) [%] | foot faults after IN delivery after TBI ([2]; as soon as day 1 after injury, greatest decrease in post and 2× pre and post groups at day 3) | beam walking at day 3, all treated groups ([2]; day 3, best results in post and 2× pre+post groups) | beam walking, treated groups vs TBI vehicle ([2]; pre, post, pre+post and 2× pre+post groups, day 1 and day 3) | NfL plasma results [3] | IL-1β expression in cortex ([4]; 24 h and 14 day time points) | IL-6 expression in cortex ([4]; 24 h and 14 day time points) | IL-10 expression in cortex ([4]; 24 h and 14 day time points) | TNF-α results ([4]; data not shown) | EC50 [5] [µM] | solubility in water and blood [6]
approximately ten fold | C[C@@H](O)CCOC(=O)C[C@@H](C)O [BHB ester, R-3′-hydroxybutyl (R)-3′-hydroxybutyrate] |  |  |  |  |  |  |  |  |  |  | 
approximately ten fold | C[C@@H](O)CC(=O)[O-].[Na+] [BHB salt, R-(−)-3-hydroxybutyric acid sodium salt] | 70 | decreased foot faults | significantly improved | showed improvement in beam walking | not significant | decreased expression | decreased expression | decreased expression | not significant |  | 
 | CC(O)CC(=O)O (stereo not drawn) [BHB, beta-hydroxybutyrate] |  |  |  |  |  |  |  |  |  | ~700 | readily soluble in water and blood
